Measurements from paper PMC12196166, “Mechanistic Insight into the Enhanced Anti-Pulmonary Hypertension Efficacy of Wogonin Co-Amorphous” (Pharmaceutics, 2025).

Experiments:
[1] = tested on: PDGF-BB-induced PASMCs; experiment: Measurement of oxidative stress markers (MDA, GSH, CAT, GPx kits); assay type: cell-based, Human; details: 3 μM, vs. model group
Protocol: Human PASMCs ([…], Cat. No.: CYH0707) were purchased from Wuhan Enji Life Technology Co., Ltd. (Wuhan, China) […] were cultured in Dulbecco's Modified Eagle Medium (DMEM) medium with 10% fetal bovine serum (FBS) and 1% penicillin/streptomycin (P/S), and maintained in a humidified 5% CO2 incubator at 37 °C. Prior to drug treatment, […] were subjected to serum starvation by culturing in a maintenance medium containing 0.5% FBS for 24 h to synchronize cell cycle progression. […] After 1 h, cells were stimulated with 40 ng/mL PDGF-BB for 48 h in each group except the control group. The levels of MDA and glutathione (GSH), as well as the activities of CAT and glutathione peroxidase (GPx) in cells, were measured using commercial assay kits. The treated PASMCs were collected and lysed with protein lysis buffer following the manufacturer's instructions.

[2] = tested on: PDGF-BB-induced PASMCs; experiment: Cell viability (CCK-8) assay, abnormal proliferation; assay type: cell-based, Human; details: 3 μM, 40 ng/mL PDGF-BB for 48 h, CCK-8, vs. model group
Protocol: Human PASMCs ([…], Cat. No.: CYH0707) were purchased from Wuhan Enji Life Technology Co., Ltd. (Wuhan, China) […] were cultured in Dulbecco's Modified Eagle Medium (DMEM) medium with 10% fetal bovine serum (FBS) and 1% penicillin/streptomycin (P/S), and maintained in a humidified 5% CO2 incubator at 37 °C. Prior to drug treatment, […] were subjected to serum starvation by culturing in a maintenance medium containing 0.5% FBS for 24 h to synchronize cell cycle progression. […] After 1 h, cells were stimulated with 40 ng/mL PDGF-BB for 48 h in each group except the control group. Cell viability was assessed using the Cell Counting Kit-8 (CCK-8) assay according to the manufacturer's protocol. Briefly, 10 μL of CCK-8 reagent was added to each well of pretreated PASMCs, followed by incubation at 37 °C under 5% CO2 for 2-h. The absorbance of each sample was quantified at 450 nm using a microplate reader.

[3] = tested on: PDGF-BB-induced PASMCs; experiment: ROS detection (DCFH-DA probe); assay type: cell-based, Human; details: 3 μM, 40 ng/mL PDGF-BB for 48 h, DCFH-DA fluorescence, vs. model group
Protocol: Human PASMCs ([…], Cat. No.: CYH0707) were purchased from Wuhan Enji Life Technology Co., Ltd. (Wuhan, China) […] were cultured in Dulbecco's Modified Eagle Medium (DMEM) medium with 10% fetal bovine serum (FBS) and 1% penicillin/streptomycin (P/S), and maintained in a humidified 5% CO2 incubator at 37 °C. Prior to drug treatment, […] were subjected to serum starvation by culturing in a maintenance medium containing 0.5% FBS for 24 h to synchronize cell cycle progression. […] After 1 h, cells were stimulated with 40 ng/mL PDGF-BB for 48 h in each group except the control group. […] After treatment, cells were loaded with 1 μM 2',7'-dichlorodihydrofluorescein diacetate (DCFH-DA) probe for 20 min at 37 °C in the dark. Nuclei were counterstained with Hoechst 33342 Live Cells Staining Solution (1:100 dilution) for 10 min. Fluorescent imaging was performed using a laser scanning confocal microscope (Leica TCS SP8, Wetzlar, Germany) with excitation/emission settings at 488/525 nm for DCFH-DA and 350/461 nm for Hoechst 33342. ROS-associated fluorescence intensity was quantified using ImageJ 4.4 software.

[4] = tested on: monocrotaline (MCT)-induced PH rats; experiment: Anti-pulmonary hypertension pharmacodynamics; assay type: in vivo, Sprague-Dawley rats
Protocol: Four-week-old male SPF Sprague-Dawley rats (weighing 220 ± 10 g) were purchased from Sporford Biotechnology Co., Ltd. (Beijing, China). and were randomly divided into cages (four rats per cage) and acclimatized for at least three days with free access to food and water.
Anti-PH pharmacodynamics were carried out using monocrotaline (MCT)-induced PH rats. Thirty rats were randomly divided into five groups: (A) control group; (B) model group; and three treatment groups (C) Wog group; (D) Wog+Alop group; and (E) Wog-Alop group. MCT was administered by a single femoral vein injection to induce PH. All administered groups of drugs were intragastrically administered from days 1 to 21 at a theoretical dose of 5 mg/kg/day for Wog. After three weeks of administration, the rats were weighed and anesthetized with 20% urethane. The electrocardiogram and right ventricular systolic pressure (RVSP) of rats were measured. The rats were perfused, and the heart and lung tissues were completely removed. The right ventricle (RV) and left ventricle plus ventricular septum (LV + S) were accurately separated and weighted, and the right ventricular hypertrophy index (RVHI) = RV/(LV + S) × 100%, RV mass index (RVMI) = RV/body weight × 100% and lung mass index (LMI) = lung weight/body weight × 100% were calculated. […] Heart tissues were taken for H&E and Masson staining, and lung tissues were stained with resorcinol basic fuchsin and proliferating cell nuclear antigen (PCNA) immunofluorescence.

[5] = In vitro dissolution in distilled water (UPLC); assay type: physicochemical; details: 37.0 °C, 100 rpm
Protocol: The wogonin, physical mixture of wogonin and aloperine (Wog+Alop), and Wog-Alop with the theoretical drug content of 6.00 mg were accurately weighed and placed into 200 mL conical flasks containing 90 mL of distilled water at 37.0 °C and 100 rpm. A total of 2 mL of sample solution was withdrawn at predetermined time points (0, 1, 2, 3, 4, 5, 6, 7, 8, 9, 10, 15, 30, 45, and 60 min) and an equal volume of distilled water was immediately supplemented. The sample solutions were filtered through a 0.22 μm microporous membrane and determined by Ultra Performance Liquid Chromatography (UPLC).

[6] = Pharmacokinetic study after intragastric administration; assay type: in vivo; details: male, Sprague-Dawley, rat, po, rats, 5 mg/kg as wogonin, plasma
Protocol: Four-week-old male SPF Sprague-Dawley rats (weighing 220 ± 10 g) were purchased from Sporford Biotechnology Co., Ltd. (Beijing, China). and were randomly divided into cages (four rats per cage) and acclimatized for at least three days with free access to food and water. This study was performed with the approval of the Ethics Review Committee for Laboratory Animals of Beijing University of Chinese Medicine (approval number: BUCM-2023032307-1148) and strictly adhered to the relevant guidelines. Laboratory animal license No.: SCXK (Jing) 2019-0010; Laboratory unit use license No.: SYXK (Jing) 2020-0033.
Twenty-four SD rats were randomly divided into three groups of eight rats each. After 3 days of adaptive feeding, they were fasted (free access to water) for 12 h. On the morning of the fourth day, wogonin, Wog+Alop, and Wog-Alop were intragastrically administered at a theoretical dose of 5 mg/kg for wogonin. Plasma samples were collected into heparinized tubes from the oculi choroideae vein at 0, 5, 10, 15, 30, 45, and 60 min and 2, 4, 6, 8, 12, 24, 32, and 48 h after administration. Plasma samples were separated by centrifugation and stored at −80 °C until determination. Ultra-Performance Liquid Chromatography-Tandem Triple Quadrupole Mass Spectrometry (UPLC-QQQ-MS) multi-response monitoring (MRM) mode was used to determine plasma samples, and Masslynx 4.1 was used to calculate plasma drug concentrations at each collection time point. The plasma concentration versus time plots were drawn, and the pharmacokinetic parameters were calculated by DAS 2.1 software. The relative oral bioavailability (RB) was calculated using the following formula: […]

[7] = intragastric 5 mg/kg/day as Wog, days 1 to 21, vs. model group

| Structure (SMILES) | increase in MDA levels [1] | reduction in CAT activity [1] | reduction in GPx activity [1] | reduction in GSH levels [1] | inhibition of abnormal proliferation of PDGF-BB-induced PASMC [2] | ROS levels [3] | P-wave duration [4, 7] | RVHI (right ventricular hypertrophy index) [4, 7] | RVMI (RV mass index) [4, 7] | percentage of dissolution [5] [%] | thickening of the medial wall of small pulmonary artery vessels ([4]; 5 mg/kg/day as Wog, 21 days, resorcinol basic fuchsin staining, vs. model group) | RVSP (right ventricular systolic pressure) [4, 7] | AUC(0-inf) ([6]; n = 8) [µg·h/mL] | AUC(0-t) ([6]; n = 8) [µg·h/mL] | Cmax ([6]; n = 8) [µg/mL] | Tmax ([6]; n = 8) [h] | MRT last ([6]; n = 8, read-out: MRT(0–t)) [h] | MRT inf ([6]; n = 8, read-out: MRT(0–∞)) [h] | half-life ([6]; n = 8, read-out: t1/2z (converted)) [h] |
| --- | --- | --- | --- | --- | --- | --- | --- | --- | --- | --- | --- | --- | --- | --- | --- | --- | --- | --- | --- |
| C1=C2CCCN[C@H]2[C@@H]2C[C@H]1[C@H]1CCCCN1C2 [Alop, aloperine] | significantly inhibited | significantly inhibited | significantly inhibited | significantly inhibited | almost no inhibitory effects | Neither Wog nor Alop alone showed notable inhibitory effects | significantly reduce | not statistically significant | not statistically significant |  |  |  |  |  |  |  |  |  |  |
| COc1c(O)cc(O)c2c(=O)cc(-c3ccccc3)oc12 [Wogonin] | significantly inhibited | significantly inhibited | significantly inhibited | significantly inhibited | almost no inhibitory effects | Neither Wog nor Alop alone showed notable inhibitory effects | significantly reduce | not statistically significant | not statistically significant | 2.17 | inhibit the thickening | reduced RVSP, although without statistical significance | 0.077 ± 0.0806 | 0.0491 ± 0.0421 | 0.0148 ± 0.0122 | 1.93 ± 3.41 | 5.97 ± 4.79 | 12.5 ± 17.5 | 7.21 ± 9.97 |
